Patent US9174939B2, “Soft rock inhibitors” (Amakem NV, priority 2011, dated 2015)

Assays:
[1] = Stability towards drug metabolizing enzymes in lung S9; format: in vitro ADME; details: human, lung S9 (from smokers) with NADPH, UDPGA, PAPS and GSH, read-out: t½ human lung S9
Protocol: C.2.2. Stability Towards Drug Metabolizing Enzymes in Lung S9
A 1 μM solution of the ROCK inhibitors is incubated with a reaction mixture containing lung S9 (from smokers) as well as the cofactors NADPH, UDPGA, PAPS and GSH. Samples are collected at 0, 15, 30 and 60 minutes post incubation. Negative control samples incubated with ROCK inhibitors and S9 fraction in the absence of cofactors are run in parallel. By using LC-MS/MS analysis, the percent of ROCK compounds remaining at each time point, the metabolic half-life of the ROCK compounds (expressed in minutes) and the metabolic half-life of the control compounds are determined.

[2] = target: ROCK II (Homo sapiens, UniProt O75116); test: Kinase inhibition (ROCKI or ROCKII), 33P-ATP filter assay; format: biochemical; details: 120 min at room temperature
Sequence of ROCK II (O75116 whole entry): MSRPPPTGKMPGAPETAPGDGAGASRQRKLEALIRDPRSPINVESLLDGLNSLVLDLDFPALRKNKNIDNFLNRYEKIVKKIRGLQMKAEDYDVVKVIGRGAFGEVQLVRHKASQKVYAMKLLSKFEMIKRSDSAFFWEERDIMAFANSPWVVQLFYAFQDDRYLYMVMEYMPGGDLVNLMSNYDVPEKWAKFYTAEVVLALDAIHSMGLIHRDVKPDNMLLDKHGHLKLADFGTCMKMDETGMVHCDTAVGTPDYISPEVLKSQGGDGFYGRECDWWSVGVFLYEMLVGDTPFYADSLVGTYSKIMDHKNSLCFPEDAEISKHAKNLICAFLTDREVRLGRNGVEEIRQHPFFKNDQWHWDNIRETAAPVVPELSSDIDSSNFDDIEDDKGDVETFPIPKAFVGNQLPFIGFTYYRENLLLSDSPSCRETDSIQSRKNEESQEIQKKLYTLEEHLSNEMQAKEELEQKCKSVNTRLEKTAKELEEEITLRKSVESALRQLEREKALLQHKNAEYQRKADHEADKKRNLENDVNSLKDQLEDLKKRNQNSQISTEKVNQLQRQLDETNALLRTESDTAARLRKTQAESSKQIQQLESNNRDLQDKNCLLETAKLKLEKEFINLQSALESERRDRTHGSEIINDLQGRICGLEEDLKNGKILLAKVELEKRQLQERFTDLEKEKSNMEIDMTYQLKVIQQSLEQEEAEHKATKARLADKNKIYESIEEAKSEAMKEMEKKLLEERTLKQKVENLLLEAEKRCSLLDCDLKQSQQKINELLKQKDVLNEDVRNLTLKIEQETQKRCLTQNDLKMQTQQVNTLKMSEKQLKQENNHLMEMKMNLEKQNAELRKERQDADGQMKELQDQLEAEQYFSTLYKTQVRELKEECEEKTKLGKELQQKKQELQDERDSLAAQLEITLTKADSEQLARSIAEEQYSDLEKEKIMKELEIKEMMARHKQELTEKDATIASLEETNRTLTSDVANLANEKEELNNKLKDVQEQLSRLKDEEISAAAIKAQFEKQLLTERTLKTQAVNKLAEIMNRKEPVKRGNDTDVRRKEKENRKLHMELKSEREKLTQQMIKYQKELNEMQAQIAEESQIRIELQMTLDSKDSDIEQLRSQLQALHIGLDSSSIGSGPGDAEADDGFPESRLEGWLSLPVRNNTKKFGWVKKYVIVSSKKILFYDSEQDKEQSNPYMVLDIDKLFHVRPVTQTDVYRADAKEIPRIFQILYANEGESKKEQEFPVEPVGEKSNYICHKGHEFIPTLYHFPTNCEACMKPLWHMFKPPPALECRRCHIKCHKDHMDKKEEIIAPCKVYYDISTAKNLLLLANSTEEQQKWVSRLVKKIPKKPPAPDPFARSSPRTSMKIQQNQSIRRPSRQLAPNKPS
Protocol: C.1.1. Kinase inhibition (ROCKI or ROCKII)
Base Reaction buffer; 20 mM Hepes (pH 7.5), 10 mM MgCl2, 1 mM EGTA, 0.02% Brij35, 0.02 mg/ml BSA, 0.1 mM Na3VO4, 2 mM DTT, 1% DMSO—Required cofactors are added individually to each kinase reaction • Reaction Procedure: • 1. Prepare indicated substrate in freshly prepared Base Reaction Buffer • 2. Deliver any required cofactors to the substrate solution above • 3. Deliver indicated kinase into the substrate solution and gently mix • 4. Deliver compounds in DMSO into the kinase reaction mixture • 5. Deliver ^33P-ATP (specific activity 0.01 μCi/μl final) into the reaction mixture to initiate the reaction. • 6. […] Wash filters extensively in 0.1% Phosphoric acid.

[3] = tested on: MLC-T18/S19 phosphorylation by endogenous ROCK in A7r5 cells; test: Myosin Light Chain Phosphorylation assay (ELISA, A7r5 cells); format: cell-based; details: A7r5 rat smooth muscle cells, serum-free medium, phospho-MLC-T18/S19 ELISA
Protocol: C.1.4. Myosin Light Chain Phosphorylation assay
Rat smooth muscle cell line A7r5 is used. The endogenous expression of ROCK results in a constitutive phosphorylation of the regulatory myosin light chain at T18/S19. A7r5 cells were plated in DMEM supplemented with 10% FCS in multiwall cell culture plates. After serum starvation overnight, cells were incubated with compounds in serum-free medium.
Quantification of MLC-T18/S19 phosphorylation is assessed in 96 well-plates via ELISA using a phspho-MLC-T18/S19 specific antibody and a secondary detection antibody. Raw data were converted into percent substrate phosphorylation relative to high controls, which were set to 100%. IC50 values were determined using GraphPad Prism 5.01 software using a nonlinear regression curve fit with variable hill slope.

[4] = Stability assay in human plasma; format: in vitro ADME; details: 1 μM compound in human plasma, LC-MS/MS; read-out: t½ human plasma
Protocol: C.2.1. Stability Assay in Human and/or Rat Plasma
Compounds are incubated at a concentration of 1 μM in rat (mice, dog, monkey, minipig or rabbit) or human plasma. Samples are taken at fixed time points and the remnant of compound is determined by LC-MS/MS after protein precipitation. Half life is expressed in minutes.

[5] = Stability assay in rabbit aqueous humor; format: in vitro ADME; details: 1 μM in rabbit aqueous humor, LC-MS/MS; read-out: t½ Rabbit AH
Protocol: C.2.3. Stability Assay in Rabbit Aqueous Humor
Compounds are incubated at a concentration of 1 μM in rabbit aqueous humor (AH). Samples are taken at fixed time points and the remnant of compound is determined by LC-MS/MS after protein precipitation.

Row | IC50 [2] [nM] | IC50 [3] [nM] | SMILES | further results
1 | < 10 | < 200 | COC(=O)c1cccc(NC(=O)c2cccc(-c3cc(C(=O)Nc4ccncc4F)ccc3CN)c2)c1 [Compound 1] | half-life at 1 μM [1]: > 0.5 h; half-life at 1 μM [4]: < 0.0833 h; half-life at 1 μM [5]: > 1 h
2 | < 10 | < 200 | COC(=O)Cc1cccc(NC(=O)c2cccc(-c3cc(C(=O)Nc4ccncc4F)ccc3CN)c2)c1 [Compound 2] | 
3 | < 10 | < 200 | COC(=O)c1ccc(NC(=O)c2cccc(-c3cc(C(=O)Nc4ccncc4F)ccc3CN)c2)cc1 [Compound 3] | 
4 | < 10 | < 200 | COC(=O)Cc1ccc(NC(=O)c2cccc(-c3cc(C(=O)Nc4ccncc4F)ccc3CN)c2)cc1 [Compound 4] | 
5 | < 10 |  | NCc1ccc(C(=O)Nc2ccncc2F)cc1-c1cccc(NC(=O)c2ccc3c(c2)COC3=O)c1 [Compound 5] | half-life at 1 μM [4]: < 1 h
6 | < 10 | < 200 | COC(=O)c1ccc(F)c(NC(=O)c2cccc(-c3cc(C(=O)Nc4ccncc4F)ccc3CN)c2)c1 [Compound 6] | half-life at 1 μM [4]: < 1 h
7 | < 10 |  | COC(=O)c1cncc(NC(=O)c2cccc(-c3cc(C(=O)Nc4ccncc4F)ccc3CN)c2)c1 [Compound 7] | 
8 | < 10 | < 200 | CCCOC(=O)c1cccc(NC(=O)c2cccc(-c3cc(C(=O)Nc4ccncc4F)ccc3CN)c2)c1 [Compound 8] | half-life at 1 μM [4]: < 0.0833 h; half-life at 1 μM [5]: > 1 h
9 | < 10 |  | COC(=O)c1cc(F)cc(NC(=O)c2cccc(-c3cc(C(=O)Nc4ccncc4F)ccc3CN)c2)c1 [Compound 9] | 
10 | < 100 | < 200 | CCCOC(=O)c1cc(F)cc(NC(=O)c2cccc(-c3cc(C(=O)Nc4ccncc4F)ccc3CN)c2)c1 [Compound 10] | 
11 | < 10 |  | COC(=O)c1csc(NC(=O)c2cccc(-c3cc(C(=O)Nc4ccncc4F)ccc3CN)c2)n1 [Compound 11] | 
12 | < 10 | < 200 | CCCOC(=O)c1ccc(F)c(NC(=O)c2cccc(-c3cc(C(=O)Nc4ccncc4F)ccc3CN)c2)c1 [Compound 12] | 
13 | < 10 |  | COC(=O)c1ccc(NC(=O)c2cccc(-c3cc(C(=O)Nc4ccncc4F)ccc3CN)c2)cc1C [Compound 13] | 
14 | < 10 |  | CCOC(=O)c1nnc(NC(=O)c2cccc(-c3cc(C(=O)Nc4ccncc4F)ccc3CN)c2)o1 [Compound 14] | 
15 | < 10 |  | COC(=O)c1ccc(NC(=O)c2cccc(-c3cc(C(=O)Nc4ccncc4F)ccc3CN)c2)o1 [Compound 15] | 
16 | < 10 |  | COC(=O)c1ccc(C(=O)Nc2cccc(-c3cc(C(=O)Nc4ccncc4F)ccc3CN)c2)cc1 [Compound 16] | 
17 | < 10 | < 200 | COC(=O)c1cccc(C(=O)Nc2cccc(-c3cc(C(=O)Nc4ccncc4F)ccc3CN)c2)c1 [Compound 17] | 
18 | < 10 |  | COC(=O)c1ccc(C(=O)Nc2cccc(-c3cc(C(=O)Nc4ccncc4F)ccc3CN)c2)nc1 [Compound 18] | 
19 | < 10 |  | CCCOC(=O)Cc1cccc(NC(=O)c2cccc(-c3cc(C(=O)Nc4ccncc4F)ccc3CN)c2)c1 [Compound 19] | 
20 | < 10 |  | COC(=O)c1cc(NC(=O)c2cccc(-c3cc(C(=O)Nc4ccncc4F)ccc3CN)c2)ccc1C [Compound 20] | 
21 | < 10 |  | CCCOC(=O)c1ccc(NC(=O)c2cccc(-c3cc(C(=O)Nc4ccncc4F)ccc3CN)c2)cc1C [Compound 21] | 
22 | < 10 |  | CCCOC(=O)c1cc(NC(=O)c2cccc(-c3cc(C(=O)Nc4ccncc4F)ccc3CN)c2)ccc1C [Compound 22] | 
